Assay results as given in patent publication US20250235417A1, “Compositions for acute and chronic wounds” (DEBx Medical Holding B.V., priority 2021, published 2025).

Columns and labels:
patients' biofilm = test: Tests performed on patients' biofilm
[1] = estimated / in the order of; cited from earlier work
[2] = assay type: physicochemical
Excerpt: The pKa and the Ka values are based on literature references, which include: • E. P. Serjeant and B. Dempsey (eds.), Ionization Constants of Organic Acids in Solution, IUPAC Chemical Data Series No. 23, Pergamon Press, Oxford, UK, 1979; • Part of Journal of Research of the National Bureau of Standards. Volume 31, December 1943, pH VALUES OF ACID.SALT MIXTURES OF SOME AROMATIC SULFONIC ACIDS AT VARIOUS TEMPERATURES AND A CRITERION OF COMPLETENESS OF DISSOCIATION, By Walter j. Hamer. Gladys D. Pinching, and S. F. Acree; • Guthrie, J. P. Hydrolysis of esters of oxy acids: pKa values for strong acids. Can. J. Chem. 1978, 56, 2342-2354;

SMILES | antimicrobial activity (patients' biofilm) | acid dissociation constant, Ka [1] | acid form remaining undissociated upon contact with the biofilm [2]
Cc1cccc(S(=O)(=O)O)c1 [3-methylbenzenesulphonic acid] | considerable antimicrobial activity | ~600 | –
CCc1ccc(S(=O)(=O)O)cc1 [4-Ethylbenzenesulphonic acid] | considerable antimicrobial activity | ~600 | –
CCCCCCCCCCCCc1ccc(S(=O)(=O)O)cc1 [4-dodecylbenzenesulphonic acid] | – | 2-3 | about 57%
